Activity calls are given as the source filed them.
Legend:
Assay type in all cases: functional
[1] = target: Protein kinase C zeta type (Homo sapiens, UniProt Q05513);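 also: measured as one member of a broad kinase profiling panel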
[2] = target: cGMP-dependent protein kinase 1 (Homo sapiens, UniProt Q13976);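 also: value from a kinome panel screen with PRKG1 as the panel member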
[3] = target: Ribosomal protein S6 kinase beta-1 (Homo sapiens, UniProt P23443);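 also: measured as one member of a kinome-wide profiling panel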
Sequence of Ribosomal protein S6 kinase beta-1 (P23443 whole entry): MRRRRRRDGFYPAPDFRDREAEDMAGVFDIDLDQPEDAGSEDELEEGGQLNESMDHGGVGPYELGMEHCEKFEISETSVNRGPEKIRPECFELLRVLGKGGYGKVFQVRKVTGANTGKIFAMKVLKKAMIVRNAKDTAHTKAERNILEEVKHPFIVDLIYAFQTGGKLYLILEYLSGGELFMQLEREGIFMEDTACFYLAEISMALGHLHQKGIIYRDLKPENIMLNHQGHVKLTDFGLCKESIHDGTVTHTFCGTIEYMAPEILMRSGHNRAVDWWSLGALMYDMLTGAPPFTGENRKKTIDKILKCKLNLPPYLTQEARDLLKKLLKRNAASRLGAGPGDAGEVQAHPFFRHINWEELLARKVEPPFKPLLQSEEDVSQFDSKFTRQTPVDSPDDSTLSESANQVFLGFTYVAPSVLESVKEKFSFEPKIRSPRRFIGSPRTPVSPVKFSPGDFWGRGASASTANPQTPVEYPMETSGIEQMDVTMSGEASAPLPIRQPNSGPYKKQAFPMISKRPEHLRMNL

[4] = target: Calcium/calmodulin-dependent protein kinase type II subunit gamma (Homo sapiens, UniProt Q13555)
[5] = target: Tyrosine-protein kinase SYK (Homo sapiens, UniProt P43405)
[6] = target: Serine/threonine-protein kinase PAK 4 (Homo sapiens, UniProt O96013);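 also: value obtained within a kinome profiling panel in which PAK4 was one of the panel members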
[7] = target: Calcium/calmodulin-dependent protein kinase type II subunit delta (Homo sapiens, UniProt Q13557)
[8] = target: Casein kinase I isoform alpha (Homo sapiens, UniProt P48729)
[9] = target: Serine/threonine-protein kinase N2 (Homo sapiens, UniProt Q16513)
[10] = target: Serine/threonine-protein kinase TAO1 (Homo sapiens, UniProt Q7L7X3)
[11] = target: Proto-oncogene tyrosine-protein kinase Src (Homo sapiens, UniProt P12931);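 also: SRC entry within a kinome-wide kinase profiling panel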
Sequence of Proto-oncogene tyrosine-protein kinase Src (P12931 2-536 limits assumed): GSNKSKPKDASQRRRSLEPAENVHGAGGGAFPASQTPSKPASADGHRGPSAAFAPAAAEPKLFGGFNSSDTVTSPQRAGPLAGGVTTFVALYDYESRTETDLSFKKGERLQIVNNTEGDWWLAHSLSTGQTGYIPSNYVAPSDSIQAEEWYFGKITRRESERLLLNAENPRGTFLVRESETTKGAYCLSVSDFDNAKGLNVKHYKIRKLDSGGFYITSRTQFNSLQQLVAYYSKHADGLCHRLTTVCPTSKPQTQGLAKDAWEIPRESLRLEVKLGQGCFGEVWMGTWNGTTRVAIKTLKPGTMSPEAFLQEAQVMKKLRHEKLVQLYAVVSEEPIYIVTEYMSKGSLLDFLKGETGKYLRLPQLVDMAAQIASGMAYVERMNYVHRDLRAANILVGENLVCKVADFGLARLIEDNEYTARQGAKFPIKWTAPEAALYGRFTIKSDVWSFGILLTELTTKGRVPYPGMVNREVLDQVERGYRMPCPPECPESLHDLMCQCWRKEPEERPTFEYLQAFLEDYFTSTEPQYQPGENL

[12] = target: Glycogen synthase kinase-3 alpha (Homo sapiens, UniProt P49840);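 also: GSK3A result taken from a broad kinome-wide kinase panel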
[13] = target: MAP kinase-interacting serine/threonine-protein kinase 2 (Homo sapiens, UniProt Q9HBH9)
Ephrin type-A receptor 2 = Ephrin type-A receptor 2 (Homo sapiens, UniProt P29317);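 also: EPHA2 tested as one member of a kinome-wide kinase panel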
[14] = target: Insulin-like growth factor 1 receptor (Homo sapiens, UniProt P08069); experiment: Navigating the Kinome. Panel member name: IGF1R
[15] = target: Mitogen-activated protein kinase 1 (Homo sapiens, UniProt P28482)
Sequence of Mitogen-activated protein kinase 1 (P28482 whole entry): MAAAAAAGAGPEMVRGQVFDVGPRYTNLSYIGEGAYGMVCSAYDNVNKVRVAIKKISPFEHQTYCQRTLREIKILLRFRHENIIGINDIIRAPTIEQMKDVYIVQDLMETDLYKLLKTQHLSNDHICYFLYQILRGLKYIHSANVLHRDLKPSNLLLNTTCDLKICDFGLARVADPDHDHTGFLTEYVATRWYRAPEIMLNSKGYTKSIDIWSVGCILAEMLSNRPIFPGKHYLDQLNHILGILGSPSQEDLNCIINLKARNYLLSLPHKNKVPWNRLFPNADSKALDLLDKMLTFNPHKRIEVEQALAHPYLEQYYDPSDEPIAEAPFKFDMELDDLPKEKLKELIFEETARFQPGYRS

Aurora kinase B = Aurora kinase B (Homo sapiens, UniProt Q96GD4)
Sequence of Aurora kinase B (Q96GD4 whole entry): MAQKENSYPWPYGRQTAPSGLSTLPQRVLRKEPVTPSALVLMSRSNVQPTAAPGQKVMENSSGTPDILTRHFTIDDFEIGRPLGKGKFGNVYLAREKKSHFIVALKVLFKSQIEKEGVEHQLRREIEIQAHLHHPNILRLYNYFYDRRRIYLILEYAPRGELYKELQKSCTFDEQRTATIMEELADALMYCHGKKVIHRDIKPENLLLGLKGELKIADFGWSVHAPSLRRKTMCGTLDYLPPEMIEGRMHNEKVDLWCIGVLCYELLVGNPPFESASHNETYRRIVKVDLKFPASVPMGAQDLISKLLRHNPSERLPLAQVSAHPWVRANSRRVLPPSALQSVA

[16] = target: Vascular endothelial growth factor receptor 3 (Homo sapiens, UniProt P35916);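 also: value from a kinome-wide profiling panel, with FLT4 as the panel member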
Sequence of Vascular endothelial growth factor receptor 3 (P35916 whole entry): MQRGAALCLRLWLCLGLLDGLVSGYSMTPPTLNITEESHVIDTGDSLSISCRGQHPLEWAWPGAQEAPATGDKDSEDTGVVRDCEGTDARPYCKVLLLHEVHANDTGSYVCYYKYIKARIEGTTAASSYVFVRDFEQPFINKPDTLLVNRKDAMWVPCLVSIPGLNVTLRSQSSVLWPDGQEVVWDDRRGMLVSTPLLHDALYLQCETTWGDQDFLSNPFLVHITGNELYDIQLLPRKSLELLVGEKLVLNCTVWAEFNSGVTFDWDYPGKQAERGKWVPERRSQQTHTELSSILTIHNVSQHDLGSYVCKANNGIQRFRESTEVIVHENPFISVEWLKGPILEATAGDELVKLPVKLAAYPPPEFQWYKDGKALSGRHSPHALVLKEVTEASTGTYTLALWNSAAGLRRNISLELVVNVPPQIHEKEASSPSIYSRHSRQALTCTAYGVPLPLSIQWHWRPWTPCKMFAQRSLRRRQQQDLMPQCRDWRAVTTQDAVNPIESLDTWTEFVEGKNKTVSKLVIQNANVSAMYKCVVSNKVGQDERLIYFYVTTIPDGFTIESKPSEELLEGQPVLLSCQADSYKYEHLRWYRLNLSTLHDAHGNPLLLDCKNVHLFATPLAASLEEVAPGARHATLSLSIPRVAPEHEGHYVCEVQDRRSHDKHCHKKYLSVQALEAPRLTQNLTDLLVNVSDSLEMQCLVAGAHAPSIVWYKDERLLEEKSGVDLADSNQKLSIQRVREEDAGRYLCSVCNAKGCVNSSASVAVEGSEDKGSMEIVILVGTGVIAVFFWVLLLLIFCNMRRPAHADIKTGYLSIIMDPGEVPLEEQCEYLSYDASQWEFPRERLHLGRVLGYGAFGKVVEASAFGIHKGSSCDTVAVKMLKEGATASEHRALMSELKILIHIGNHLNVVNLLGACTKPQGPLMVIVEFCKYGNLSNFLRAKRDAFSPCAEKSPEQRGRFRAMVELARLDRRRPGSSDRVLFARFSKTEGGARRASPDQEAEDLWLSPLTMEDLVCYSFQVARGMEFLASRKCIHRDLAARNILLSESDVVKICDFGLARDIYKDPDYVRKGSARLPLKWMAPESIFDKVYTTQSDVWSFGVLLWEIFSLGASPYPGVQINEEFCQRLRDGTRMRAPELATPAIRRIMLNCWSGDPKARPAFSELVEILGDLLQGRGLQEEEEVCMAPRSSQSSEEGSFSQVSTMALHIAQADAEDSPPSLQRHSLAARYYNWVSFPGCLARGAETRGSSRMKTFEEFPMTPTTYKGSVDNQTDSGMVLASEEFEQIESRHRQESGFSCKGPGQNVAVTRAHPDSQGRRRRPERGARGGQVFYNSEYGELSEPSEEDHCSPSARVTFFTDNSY

[17] = target: Rho-associated protein kinase 1 (Homo sapiens, UniProt Q13464);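 also: measured within a broad kinome-wide panel profiling many kinases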
[18] = target: Calcium/calmodulin-dependent protein kinase type 1 (Homo sapiens, UniProt Q14012)
Sequence of Calcium/calmodulin-dependent protein kinase type 1 (Q14012 whole entry): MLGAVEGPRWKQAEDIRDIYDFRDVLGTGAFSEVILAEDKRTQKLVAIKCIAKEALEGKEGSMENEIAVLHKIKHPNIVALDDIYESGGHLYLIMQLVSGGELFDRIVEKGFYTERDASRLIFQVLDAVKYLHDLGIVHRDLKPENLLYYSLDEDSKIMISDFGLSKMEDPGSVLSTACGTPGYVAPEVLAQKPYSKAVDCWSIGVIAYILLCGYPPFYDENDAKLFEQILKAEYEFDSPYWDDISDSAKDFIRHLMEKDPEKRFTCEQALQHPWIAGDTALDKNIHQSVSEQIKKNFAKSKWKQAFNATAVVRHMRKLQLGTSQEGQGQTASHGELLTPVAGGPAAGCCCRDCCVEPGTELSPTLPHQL

[19] = target: Homeodomain-interacting protein kinase 4 (Homo sapiens, UniProt Q8NE63)
[20] = target: Cyclin-dependent kinase 1 (Homo sapiens, UniProt P06493);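 also: Kinome-wide panel profiling, with the target listed as panel member CDC2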
Sequence of Cyclin-dependent kinase 1 (P06493 whole entry): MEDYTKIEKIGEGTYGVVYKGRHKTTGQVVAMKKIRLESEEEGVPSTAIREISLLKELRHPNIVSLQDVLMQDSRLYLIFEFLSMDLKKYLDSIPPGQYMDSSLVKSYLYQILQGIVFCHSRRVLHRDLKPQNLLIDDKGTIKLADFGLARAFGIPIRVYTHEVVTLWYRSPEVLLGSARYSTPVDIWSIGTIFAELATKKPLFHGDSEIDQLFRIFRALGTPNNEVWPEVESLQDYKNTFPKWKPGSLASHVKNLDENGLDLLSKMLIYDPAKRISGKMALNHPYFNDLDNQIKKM

[21] = target: 3-phosphoinositide-dependent protein kinase 1 (Homo sapiens, UniProt O15530);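 also: value comes from the Navigating the Kinome panel, PDPK1 member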
Sequence of 3-phosphoinositide-dependent protein kinase 1 (O15530 whole entry): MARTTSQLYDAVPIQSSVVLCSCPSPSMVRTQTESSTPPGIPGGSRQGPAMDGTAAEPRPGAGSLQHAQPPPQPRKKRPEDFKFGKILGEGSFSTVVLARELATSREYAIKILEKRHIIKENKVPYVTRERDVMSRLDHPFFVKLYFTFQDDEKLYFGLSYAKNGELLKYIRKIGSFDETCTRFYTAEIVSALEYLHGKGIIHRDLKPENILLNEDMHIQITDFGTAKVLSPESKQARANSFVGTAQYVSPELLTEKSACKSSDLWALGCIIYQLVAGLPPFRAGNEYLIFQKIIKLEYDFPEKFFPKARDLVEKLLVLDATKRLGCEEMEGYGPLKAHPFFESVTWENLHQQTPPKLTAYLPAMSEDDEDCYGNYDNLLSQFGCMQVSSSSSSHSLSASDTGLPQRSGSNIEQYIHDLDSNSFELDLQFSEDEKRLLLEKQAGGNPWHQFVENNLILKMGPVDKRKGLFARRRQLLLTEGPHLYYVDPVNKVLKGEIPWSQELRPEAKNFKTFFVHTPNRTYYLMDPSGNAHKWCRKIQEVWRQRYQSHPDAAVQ

[22] = target: Serine/threonine-protein kinase DCLK1 (Homo sapiens, UniProt O15075);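 also: affinity for DCLK1 (listed as DCAMKL1) measured as one member of a kinome-wide kinase profiling panel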
[23] = target: Serine/threonine-protein kinase Nek2 (Homo sapiens, UniProt P51955)
[24] = target: Serine/threonine-protein kinase PLK1 (Homo sapiens, UniProt P53350);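 also: PLK1 measured as one member of a kinome-wide profiling panel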
[25] = target: BDNF/NT-3 growth factors receptor (Homo sapiens, UniProt Q16620);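 also: NTRK2 measured as one member of a broad kinome-wide kinase profiling panel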
[26] = target: Mitogen-activated protein kinase 12 (Homo sapiens, UniProt P53778);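 also: measured as one member of a kinome-wide kinase profiling panel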
[27] = target: Lymphokine-activated killer T-cell-originated protein kinase (Homo sapiens, UniProt Q96KB5);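 also: value comes from a kinase panel screen in which TOPK was one of the panel members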
[28] = target: Dual specificity tyrosine-phosphorylation-regulated kinase 1A (Homo sapiens, UniProt Q13627);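 also: measured against DYRK1A as one member of a broad kinome profiling panel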
[29] = target: Tyrosine-protein kinase FRK (Homo sapiens, UniProt P42685);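 also: FRK tested as one member of a kinome panel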
[30] = target: T1, Replicative DNA helicase DnaB (Mycobacterium tuberculosis, UniProt P9WMR3); experiment: DnaB intein splicing inhibitors, dose response, biochemical, cell-free fluorescence (AID 449749)
T1 sequence (P9WMR3 whole entry): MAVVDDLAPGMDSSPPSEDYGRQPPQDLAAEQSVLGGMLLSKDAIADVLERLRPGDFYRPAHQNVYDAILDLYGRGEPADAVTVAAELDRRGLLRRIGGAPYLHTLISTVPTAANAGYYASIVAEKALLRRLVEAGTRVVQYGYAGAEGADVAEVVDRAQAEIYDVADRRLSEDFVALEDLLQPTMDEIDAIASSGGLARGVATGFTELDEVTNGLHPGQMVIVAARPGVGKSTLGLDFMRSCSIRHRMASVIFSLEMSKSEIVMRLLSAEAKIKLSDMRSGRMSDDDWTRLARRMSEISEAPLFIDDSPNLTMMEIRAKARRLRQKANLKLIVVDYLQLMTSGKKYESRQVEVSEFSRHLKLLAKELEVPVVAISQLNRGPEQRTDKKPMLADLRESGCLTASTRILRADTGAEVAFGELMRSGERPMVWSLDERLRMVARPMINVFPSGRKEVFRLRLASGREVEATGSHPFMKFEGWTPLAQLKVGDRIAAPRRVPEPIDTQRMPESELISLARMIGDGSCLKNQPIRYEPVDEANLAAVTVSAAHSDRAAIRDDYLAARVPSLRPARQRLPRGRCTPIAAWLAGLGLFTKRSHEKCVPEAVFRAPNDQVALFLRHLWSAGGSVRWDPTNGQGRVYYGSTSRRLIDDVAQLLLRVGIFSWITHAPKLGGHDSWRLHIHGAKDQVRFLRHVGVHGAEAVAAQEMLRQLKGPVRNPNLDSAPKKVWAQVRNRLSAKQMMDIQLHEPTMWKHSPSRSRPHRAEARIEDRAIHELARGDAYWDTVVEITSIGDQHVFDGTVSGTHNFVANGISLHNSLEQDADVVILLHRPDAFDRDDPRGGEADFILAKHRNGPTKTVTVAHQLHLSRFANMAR

Vero = Vero cell cytotoxicity, cytotoxicity control for flavivirus capping enzyme inhibitors (AID 588742); details: Chlorocebus sabaeus
Genome polyprotein = Genome polyprotein (dengue virus type 2, UniProt P29990); experiment: Dengue-2 NS5 methyltransferase inhibitors, primary screen, biochemical, confirmation dose response (AID 588689)

Sequence of cGMP-dependent protein kinase 1 (Q13976 whole entry): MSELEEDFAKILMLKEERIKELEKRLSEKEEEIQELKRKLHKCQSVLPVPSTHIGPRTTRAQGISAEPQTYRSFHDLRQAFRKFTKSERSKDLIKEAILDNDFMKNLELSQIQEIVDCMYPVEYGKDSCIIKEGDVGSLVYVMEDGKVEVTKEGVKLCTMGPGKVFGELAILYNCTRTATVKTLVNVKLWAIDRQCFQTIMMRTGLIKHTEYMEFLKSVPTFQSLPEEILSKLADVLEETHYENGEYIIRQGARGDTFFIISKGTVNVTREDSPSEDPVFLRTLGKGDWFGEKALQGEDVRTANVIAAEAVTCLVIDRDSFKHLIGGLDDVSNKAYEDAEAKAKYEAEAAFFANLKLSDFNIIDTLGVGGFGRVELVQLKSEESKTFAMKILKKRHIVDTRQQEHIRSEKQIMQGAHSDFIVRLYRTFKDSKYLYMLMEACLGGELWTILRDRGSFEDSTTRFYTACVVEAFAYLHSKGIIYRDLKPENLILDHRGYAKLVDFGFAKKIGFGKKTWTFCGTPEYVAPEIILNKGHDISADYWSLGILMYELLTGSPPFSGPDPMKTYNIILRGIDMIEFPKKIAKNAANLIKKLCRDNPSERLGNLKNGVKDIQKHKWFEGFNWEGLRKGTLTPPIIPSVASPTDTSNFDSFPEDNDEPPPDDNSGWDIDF

## Cn1cncc1C(OCc1c(-c2ccc(OC(F)(F)F)cc2)cc(C#N)c(=O)n1C)c1ccc(C#N)cc1 (centres undefined)
[1]
  Ki: > 7.94 µM (inactive)
[2]
  Ki: > 2 µM (inactive)
[3]
  Ki: 1.58 µM (active)
[4]
  Ki: > 6.31 µM (inactive)
[5]
  Ki: > 1.58 µM (inactive)
[6]
  Ki: > 5.01 µM (inactive)
[7]
  Ki: > 6.31 µM (inactive)
[8]
  Ki: > 6.31 µM (inactive)
[9]
  Ki: > 7.94 µM (inactive)
[10]
  Ki: 3.98 µM (active)
[11]
  Ki: > 2 µM (inactive)
[12]
  Ki: > 7.94 µM (inactive)
[13]
  Ki: > 10 µM (inactive)
Ephrin type-A receptor 2
  Ki: > 3.16 µM (inactive)
[14]
  Ki: > 2 µM (inactive)
[15]
  Ki: > 7.94 µM (inactive)
Aurora kinase B
  Ki: 158 nM (active)
[16]
  Ki: > 6.31 µM (inactive)
[17]
  Ki: > 10 µM (inactive)
[18]
  Ki: > 5.01 µM (inactive)
[19]
  Ki: > 7.94 µM (inactive)
[20]
  Ki: > 7.94 µM (inactive)
[21]
  Ki: > 3.98 µM (inactive)
[22]
  Ki: > 10 µM (inactive)
[23]
  Ki: > 10 µM (inactive)
[24]
  Ki: > 7.94 µM (inactive)
[25]
  Ki: > 5.01 µM (inactive)
[26]
  Ki: > 6.31 µM (inactive)
[27]
  Ki: > 10 µM (inactive)
[28]
  Ki: 316 nM (active)
[29]
  Ki: > 2.51 µM (inactive)

## CCc1ccc(S(=O)(=O)/N=C2\C=C(NS(=O)(=O)c3ccccc3)C(=O)c3ccccc32)cc1
[30]
  AC50: 2.55 µM (active)
Vero
  CC50: > 40 µM (active)
Genome polyprotein
  IC50: 22.9 µM (active)

From ChEMBL document CHEMBL1201862, “PubChem BioAssay data set” (2004)
